Data on 16 compounds can be found in patent publication US11021444B2, “Antiviral compounds” (priority 2013, dated 2021).

pEC50, pIC50: −log10 of the molar value. Read-outs that look alike come from different tables or passages of the source. Bounds are passed on as bounds.

One series relates to RSV replicon. Put plainly: microbe, parasite or virus in culture. It is filed as cell-based. As to conditions: human respiratory syncytial virus, read-out: EC50, the concentration of the drug required for reducing RSV replicon RNA by 50%.
A further series addresses recombinant RSV complex (Human respiratory syncytial virus A, UniProt P28887). Put plainly: RSV Polymerase Inhibition Assay. The series is classed as biochemical. The method, boiled down:
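Inhibition measured as reduced incorporation of radiolabel into RNA products, detected by scintillation counting. Reactions: recombinant RSV complex (10 nM), RNA oligonucleotides, Tris-HCl pH 7.5, 6 mM MgCl2, inhibitor titration, 2 h at 30 °C, EDTA stop.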

Series [1] can be described thus: Cytotoxicity Determination (CCK-8, without addition of virus). The series is classed as cell-based. To be noted: human, 50% cytotoxicity concentration (CC50). The method, boiled down: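 Cytotoxicity was measured by CCK-8 after 3-4 hours at 37 °C, following 5 days of uninfected exposure at 37 °C and 5% CO2. Compounds ran as duplicate 7-point 1/2 dilutions starting at 100 μM, with 1% final DMSO. HEp-2 cells had been plated at 1,500/well the day before.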

For series [2], the system named is Respiratory Syncytial Virus (RSV) long strain. Put plainly: microbe, parasite or virus in culture. It is filed as cell-based. As to conditions: human respiratory syncytial virus, Tables A and B list compounds by EC50 band. An outline of the steps: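 CPE-reduction format: viability measured colorimetrically with CCK-8 (450 nm, 630 nm reference) after 3-4 h, following 5-day infection at 37 °C, 5% CO2. Cells were HEp-2; inoculum 100 TCID50/well; duplicate 9-point 1/3 series starting at 100 μM or 1 μM.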

The mark [3] stands for this setting: HEp-2, 120 h, read-out: 50% effective concentration (EC50), HEp-2 cells infected with RSV long strain, 5 days, CCK-8 readout.

Chain of recombinant RSV complex (P28887 whole entry): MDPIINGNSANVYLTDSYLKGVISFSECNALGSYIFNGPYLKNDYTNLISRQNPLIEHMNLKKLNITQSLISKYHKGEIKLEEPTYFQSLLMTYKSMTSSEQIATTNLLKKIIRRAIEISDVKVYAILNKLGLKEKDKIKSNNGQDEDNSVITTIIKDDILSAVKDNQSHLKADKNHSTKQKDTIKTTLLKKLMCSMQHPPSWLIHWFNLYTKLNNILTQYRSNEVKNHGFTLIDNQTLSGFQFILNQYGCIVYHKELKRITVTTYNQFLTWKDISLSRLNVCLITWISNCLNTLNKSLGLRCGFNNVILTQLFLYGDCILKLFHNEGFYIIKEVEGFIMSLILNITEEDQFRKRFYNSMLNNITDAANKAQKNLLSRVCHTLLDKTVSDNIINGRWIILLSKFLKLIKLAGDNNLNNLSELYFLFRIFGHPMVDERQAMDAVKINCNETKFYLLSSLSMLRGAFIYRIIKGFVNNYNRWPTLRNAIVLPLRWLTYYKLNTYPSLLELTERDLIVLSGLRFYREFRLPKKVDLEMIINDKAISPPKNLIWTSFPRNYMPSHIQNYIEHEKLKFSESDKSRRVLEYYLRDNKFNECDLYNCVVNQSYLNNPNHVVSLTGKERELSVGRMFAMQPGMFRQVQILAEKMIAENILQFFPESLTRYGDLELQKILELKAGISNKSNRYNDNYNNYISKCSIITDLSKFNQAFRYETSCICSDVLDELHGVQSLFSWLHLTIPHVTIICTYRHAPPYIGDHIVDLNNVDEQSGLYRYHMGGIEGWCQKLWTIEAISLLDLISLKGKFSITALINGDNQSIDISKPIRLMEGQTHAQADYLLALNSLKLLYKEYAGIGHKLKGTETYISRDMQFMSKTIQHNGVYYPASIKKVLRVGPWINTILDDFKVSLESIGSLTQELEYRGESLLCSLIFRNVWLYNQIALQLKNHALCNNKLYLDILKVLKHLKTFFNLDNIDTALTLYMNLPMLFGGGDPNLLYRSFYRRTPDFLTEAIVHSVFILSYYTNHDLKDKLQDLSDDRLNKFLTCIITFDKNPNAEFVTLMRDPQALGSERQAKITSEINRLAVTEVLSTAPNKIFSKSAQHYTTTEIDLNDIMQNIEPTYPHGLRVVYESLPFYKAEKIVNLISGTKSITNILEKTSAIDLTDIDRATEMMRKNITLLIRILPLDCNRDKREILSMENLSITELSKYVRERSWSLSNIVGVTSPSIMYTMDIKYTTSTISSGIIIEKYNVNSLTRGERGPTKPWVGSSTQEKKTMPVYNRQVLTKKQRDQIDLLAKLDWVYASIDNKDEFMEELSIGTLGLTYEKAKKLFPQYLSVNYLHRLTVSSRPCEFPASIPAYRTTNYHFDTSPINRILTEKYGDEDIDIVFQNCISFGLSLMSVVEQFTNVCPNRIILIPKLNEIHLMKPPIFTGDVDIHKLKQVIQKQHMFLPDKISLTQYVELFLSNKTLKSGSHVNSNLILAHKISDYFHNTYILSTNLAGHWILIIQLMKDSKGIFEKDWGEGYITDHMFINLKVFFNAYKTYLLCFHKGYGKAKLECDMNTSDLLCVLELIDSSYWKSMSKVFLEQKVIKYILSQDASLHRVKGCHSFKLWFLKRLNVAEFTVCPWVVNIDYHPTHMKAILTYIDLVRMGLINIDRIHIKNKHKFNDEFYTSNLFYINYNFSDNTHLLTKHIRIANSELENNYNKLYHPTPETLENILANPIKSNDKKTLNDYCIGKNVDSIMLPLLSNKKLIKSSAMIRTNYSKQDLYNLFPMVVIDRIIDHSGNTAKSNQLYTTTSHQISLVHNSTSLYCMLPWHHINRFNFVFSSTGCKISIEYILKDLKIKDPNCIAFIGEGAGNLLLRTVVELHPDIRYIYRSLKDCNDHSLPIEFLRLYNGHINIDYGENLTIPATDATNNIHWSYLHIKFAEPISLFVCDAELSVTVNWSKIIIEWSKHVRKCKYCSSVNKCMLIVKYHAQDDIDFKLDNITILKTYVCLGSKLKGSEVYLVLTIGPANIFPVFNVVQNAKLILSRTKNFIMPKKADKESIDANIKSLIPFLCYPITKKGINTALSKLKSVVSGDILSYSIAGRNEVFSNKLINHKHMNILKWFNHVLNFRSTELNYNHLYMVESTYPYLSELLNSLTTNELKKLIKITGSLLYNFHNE
Chain of recombinant RSV complex (P03421 whole entry, further chain): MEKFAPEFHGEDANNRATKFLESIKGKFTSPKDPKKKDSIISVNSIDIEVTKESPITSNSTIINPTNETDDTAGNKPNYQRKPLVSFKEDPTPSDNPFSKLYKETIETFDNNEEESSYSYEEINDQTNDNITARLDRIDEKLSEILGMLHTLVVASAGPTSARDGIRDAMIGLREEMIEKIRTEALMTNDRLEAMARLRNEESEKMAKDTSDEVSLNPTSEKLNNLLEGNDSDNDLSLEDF
Experimental for RSV replicon: The Renilla Luciferase Assay System (Promega, Cat. #E2820) was used to measure anti-RSV replicon activity. […] Luminescence was recorded using a Perkin Elmer multilabel counter Victor3V. EC50, the concentration of the drug required for reducing RSV replicon RNA by 50% in relation to the untreated cell control value, was calculated from the plot of percentage reductions of the optical density (OD) value against the drug concentrations using the Microsoft Excel forecast function.

For orientation: pIC50 means −log10 of the IC50, conventionally taken in molar units. For orientation: CC50 means the concentration that lowers cell viability or growth by half. Take `COc1cc(C(=O)NCC(O)(c2cc(C(C)(C)N)cc(-c3ccc(F)c(Cl)c3)n2)C(F)(F)F)ccc1OCC(=O)O` (stereo not shown) [Compound 578]: the pEC50 with RSV replicon was over 6.00. For the same compound, the pIC50 on recombinant RSV complex is over 6.00. In series [1], this compound came in with a CC50 at 5 days of 10 to 100 µM.
As for `COc1cc(C(=O)NCC(O)(c2cc3c(c(-c4ccc(F)c(Cl)c4)n2)OCCC3(C)C)C(F)(F)F)ccc1OCC(N)=O` (stereo not shown) [Compound 347], the pEC50 (in series [2] (setting [3]); in the series with RSV replicon) was over 6.00 each time. This compound also returned a CC50 at 5 days in series [1] of 10 to 100 µM.
Consider `COc1cc(C(=O)NCC(O)(c2ccc(OC)c(-c3ccc(F)c(Cl)c3)n2)C(F)(F)F)ccc1OC[C@@H](C)O` (stereo partly shown) [Compound 336], for which the pEC50 (in series [2] (setting [3]); in the series with RSV replicon) was over 6.00 throughout. This compound showed a CC50 at 5 days in series [1] of 10 to 100 µM.
Regarding `COc1cc(C(=O)NCC(O)(c2cc(C(C)(C)O)cc(-c3ccc(F)c(Cl)c3)n2)C(F)(F)F)ccc1OC1CC1` (stereo not shown) [Compound 386], in the series on RSV replicon, the pEC50 is over 6.00. Besides, the pIC50 at recombinant RSV complex was over 6.00. In addition, in series [1], the CC50 at 5 days was 10 to 100 µM.
Consider `COc1cc(C(=O)NCC(O)(c2cc3c(c(-c4ccc(C#N)cc4)n2)OCC3(C)N)C(F)(F)F)ccc1OC1CC1` (stereo not shown) [Compound 542], for which the pEC50 in series [2] (120 h, read-out: 50% effective concentration (EC50), HEp-2 cells infected with RSV long strain, 5 days, CCK-8 readout) is over 6.00; with RSV replicon, over 6.00. The compound also displayed a 50% cytotoxic concentration (CC50) at 5 days in series [1] of 10 to 100 µM.
For `COc1cc(C(=O)NCC(O)(c2cc3c(c(-c4ccc(CO)cc4)n2)OCC3(C)N)C(F)(F)F)ccc1OCCO` (stereo not shown) [Compound 672], the pEC50 in the series with RSV replicon was over 6.00. Moreover, at recombinant RSV complex, the negative logarithm of the IC50 (pIC50) is over 5.00. The same compound registered a half-maximal cytotoxic concentration (CC50) at 5 days in series [1] of over 100 µM.
With `CC(C)(N)c1cc(-c2ccc(F)c(Cl)c2)nc(C(O)(CNC(=O)c2ccc3c(c2)OC(F)(F)O3)C(F)(F)F)c1` (stereo not shown) [Compound 275], the pEC50 in series [2] (setting [3]) was 4.30 to 6.00; in the series on RSV replicon it was over 6.00. Besides, at recombinant RSV complex, the pIC50 was over 6.00.
On to `COc1cc(C(=O)NCC(O)(c2cc(C(C)(C)N)cc(-c3ccc(F)c(Cl)c3)n2)C(F)(F)F)ccc1OC1CC1` (stereo not shown) [Compound 314], for which the pEC50 (in series [2] (setting [3]); in the series on RSV replicon) was over 6.00 throughout. Also, the pIC50 at recombinant RSV complex is over 6.00.
Take `COc1cc(C(=O)NCC(O)(c2cc3c(c(-c4ccc(C(=O)O)cc4)n2)OCC3(C)N)C(F)(F)F)ccc1OCCO` (stereo not shown) [Compound 675]: in the series on RSV replicon, the pEC50 is over 6.00. The compound also had a CC50 at 5 days in series [1] of over 100 µM.
Regarding `COc1cc(C(=O)NCC2(c3cccc(-c4csc5c(F)cccc45)n3)COC2)ccc1OCCO` [Compound 163], in the series on RSV replicon, the pEC50 was 4.30 to 6.00. The same compound had a CC50 at 5 days in series [1] of 10 to 100 µM.
For `COc1cc(C(=O)NCC(O)(c2cc(C(C)(C)N)cc(-c3ccc(F)c(Cl)c3)n2)C(F)(F)F)ccc1OCC(F)(F)F` (stereo not shown) [Compound 325], the pEC50 (in series [2] (setting [3]); with RSV replicon) was over 6.00 each time. Moreover, the pIC50 at recombinant RSV complex was over 6.00.
As to `CC(C)(N)c1cc(-c2ccc(F)c(Cl)c2)nc(C(O)(CNC(=O)c2ccc(OC3CC3)c(Cl)c2)C(F)(F)F)c1` (stereo not shown) [Compound 282], the pEC50 (in series [2] (setting [3]); with RSV replicon) was over 6.00 in each case. For the same compound, the pIC50 on recombinant RSV complex was over 6.00.
Consider `CCOc1ccc(C(=O)NCC(O)(c2cc3c(c(-c4ccc(F)c(Cl)c4)n2)OCC3(C)N)C(F)(F)F)cc1Cl` (stereo not shown) [Compound 494], for which the pEC50 (in series [2] (setting [3]); with RSV replicon) was over 6.00 in each case. Moreover, the pIC50 at recombinant RSV complex is over 6.00.
For the compound `COc1cc(C(=O)NCC(O)(c2cc3c(c(-c4ccc(F)c(Cl)c4)n2)OCC3(C)NCCN)C(F)(F)F)ccc1OC1CC1` (stereo not shown) [Compound 499], the pEC50 (in series [2] (setting [3]); with RSV replicon) was over 6.00 throughout. Moreover, at recombinant RSV complex, the pIC50 was over 6.00.
On to `COc1cc(C(=O)NCC(O)(c2cc(C(C)(C)N)cc(-c3ccc(F)c(Cl)c3)n2)C2CC2)ccc1OC1CC1` (stereo not shown) [Compound 667], for which the pEC50 (in series [2] (setting [3]); in the series with RSV replicon) was over 6.00 each time. The negative logarithm of the IC50 (pIC50) at recombinant RSV complex is over 6.00.
On to `COc1cc(C(=O)NCC(O)(c2cc(C(C)(C)N)cc(-c3c[nH]c4c(F)cccc34)n2)C(F)(F)F)ccc1OC1CC1` (stereo not shown) [Compound 519], for which the pEC50 (in series [2] (setting [3]); in the series with RSV replicon) was over 6.00 throughout. In addition, the pIC50 at recombinant RSV complex is over 6.00.
